Source: ChEMBL document CHEMBL1129043, “Preparation of phenolic paclitaxel metabolites” (J Med Chem, 1996)

Assay: Ratio of ED50 for cytotoxicity against B16 melanoma to paclitaxel
Settings: mouse

CC(=O)O[C@H]1C(=O)[C@@]2(C)[C@H]([C@H](OC(=O)c3cccc(O)c3)[C@]3(O)C[C@H](OC(=O)[C@H](O)[C@@H](NC(=O)c4ccccc4)c4ccccc4)C(C)=C1C3(C)C)[C@]1(OC(C)=O)CO[C@@H]1C[C@@H]2O
Ratio: > 20
